Assay results from publication PMC3489664, “Sigma-1 Receptor Agonists Directly Inhibit NaV1.2/1.4 Channels” (PLoS ONE, 2012).

How the values were obtained:
Type in all cases: cell-based
NaV1.2 [1] = target: T1, NaV1.2 (Rattus norvegicus, UniProt P04775); test: whole-cell patch clamp in transfected HEK293T cells, […]; conditions: HEK-293T
T1 construct: gene Scn2a; rat brain type IIA Na+ channel clone

NaV1.4 [2] = target: T2, NaV1.4 (Rattus norvegicus, UniProt P15390, Y1586A); test: as above; conditions: HEK-293T
T2 construct: gene Scn4a; rat NaV1.4 (NM013178)

NaV1.4 [3] = target: T3, NaV1.4 (Rattus norvegicus, UniProt P15390); test: whole-cell patch clamp in transfected HEK293T and COS-7 cells, […]
T3 construct: gene Scn4a; rat NaV1.4 (NM013178) in pEGFP-N1

NaV1.2 [4] = target: T4, NaV1.2 (Rattus norvegicus, UniProt P04775, F1764A); test: whole-cell patch clamp in transfected HEK293T cells, […]; conditions: HEK-293T
T4 construct: gene Scn2a; rat brain type IIA Na+ channel clone

NaV1.2 [5] = target: T5, NaV1.2 (Rattus norvegicus, UniProt P04775, Y1771A); test: as above; conditions: HEK-293T
T5 construct: gene Scn2a; rat brain type IIA Na+ channel clone

NaV1.2 [6] = target: T1, NaV1.2; test: whole-cell patch clamp in transfected HEK293T cells
NaV1.4 [7] = target: T6, NaV1.4 (Rattus norvegicus, UniProt P15390, F1579A); test: whole-cell patch clamp in transfected HEK293T cells, […]; conditions: HEK-293T
T6 construct: gene Scn4a; rat NaV1.4 (NM013178)

NaV1.2 [8] = target: T1, NaV1.2; test: whole-cell patch clamp in transfected HEK293T and COS-7 cells, […]

T1 sequence (P04775 whole entry): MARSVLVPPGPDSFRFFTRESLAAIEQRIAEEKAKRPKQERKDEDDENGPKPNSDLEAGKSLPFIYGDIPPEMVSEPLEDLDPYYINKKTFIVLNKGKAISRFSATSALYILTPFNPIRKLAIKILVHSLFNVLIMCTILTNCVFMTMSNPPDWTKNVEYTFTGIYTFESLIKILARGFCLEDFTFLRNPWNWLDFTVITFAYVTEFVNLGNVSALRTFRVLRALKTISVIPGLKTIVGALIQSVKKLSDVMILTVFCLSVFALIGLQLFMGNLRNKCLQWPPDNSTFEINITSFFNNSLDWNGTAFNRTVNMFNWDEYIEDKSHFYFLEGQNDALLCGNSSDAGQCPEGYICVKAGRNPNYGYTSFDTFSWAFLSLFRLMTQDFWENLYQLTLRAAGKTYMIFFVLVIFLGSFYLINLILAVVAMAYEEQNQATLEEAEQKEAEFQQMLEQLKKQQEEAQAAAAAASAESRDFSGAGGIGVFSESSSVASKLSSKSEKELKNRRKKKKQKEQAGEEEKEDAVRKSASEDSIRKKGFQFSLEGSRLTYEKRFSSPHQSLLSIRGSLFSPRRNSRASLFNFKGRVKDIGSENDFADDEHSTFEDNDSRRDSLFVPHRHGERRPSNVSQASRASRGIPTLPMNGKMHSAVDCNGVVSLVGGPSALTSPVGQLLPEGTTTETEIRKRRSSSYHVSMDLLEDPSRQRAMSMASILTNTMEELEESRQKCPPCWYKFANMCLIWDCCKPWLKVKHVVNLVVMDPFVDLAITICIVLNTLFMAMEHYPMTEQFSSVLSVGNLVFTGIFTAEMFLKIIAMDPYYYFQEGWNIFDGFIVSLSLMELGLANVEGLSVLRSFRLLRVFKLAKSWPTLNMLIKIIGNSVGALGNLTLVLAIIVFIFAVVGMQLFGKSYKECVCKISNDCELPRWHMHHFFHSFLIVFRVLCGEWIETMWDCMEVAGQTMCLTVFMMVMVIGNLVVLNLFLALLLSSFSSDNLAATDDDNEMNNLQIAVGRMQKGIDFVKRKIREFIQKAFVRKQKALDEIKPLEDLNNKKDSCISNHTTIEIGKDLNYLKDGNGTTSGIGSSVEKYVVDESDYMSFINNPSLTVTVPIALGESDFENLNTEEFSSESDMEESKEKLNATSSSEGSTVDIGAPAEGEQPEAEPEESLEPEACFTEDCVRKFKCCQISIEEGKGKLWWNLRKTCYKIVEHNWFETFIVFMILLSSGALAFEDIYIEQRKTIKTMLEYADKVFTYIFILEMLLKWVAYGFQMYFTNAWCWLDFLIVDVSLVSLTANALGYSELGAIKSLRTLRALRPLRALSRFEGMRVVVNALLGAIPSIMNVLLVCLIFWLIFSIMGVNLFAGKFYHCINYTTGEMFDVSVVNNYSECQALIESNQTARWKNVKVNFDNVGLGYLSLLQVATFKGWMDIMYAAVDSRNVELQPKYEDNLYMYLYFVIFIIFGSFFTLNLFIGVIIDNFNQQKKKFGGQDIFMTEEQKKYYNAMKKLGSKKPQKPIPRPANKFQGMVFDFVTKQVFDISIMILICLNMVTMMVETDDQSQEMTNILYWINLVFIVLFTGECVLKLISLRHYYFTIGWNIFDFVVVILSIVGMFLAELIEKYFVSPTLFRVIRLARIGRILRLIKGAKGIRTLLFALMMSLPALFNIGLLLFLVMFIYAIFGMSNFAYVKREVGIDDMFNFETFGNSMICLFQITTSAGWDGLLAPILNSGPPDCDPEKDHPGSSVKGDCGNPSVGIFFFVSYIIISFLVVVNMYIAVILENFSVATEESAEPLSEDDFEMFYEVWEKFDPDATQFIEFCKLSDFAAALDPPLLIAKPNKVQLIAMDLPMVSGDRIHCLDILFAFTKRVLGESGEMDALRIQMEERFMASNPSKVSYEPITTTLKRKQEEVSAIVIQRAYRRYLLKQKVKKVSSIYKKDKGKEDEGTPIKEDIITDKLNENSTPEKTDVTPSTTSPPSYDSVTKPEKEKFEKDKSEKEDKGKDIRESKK
T6 sequence (P15390 whole entry F1579A): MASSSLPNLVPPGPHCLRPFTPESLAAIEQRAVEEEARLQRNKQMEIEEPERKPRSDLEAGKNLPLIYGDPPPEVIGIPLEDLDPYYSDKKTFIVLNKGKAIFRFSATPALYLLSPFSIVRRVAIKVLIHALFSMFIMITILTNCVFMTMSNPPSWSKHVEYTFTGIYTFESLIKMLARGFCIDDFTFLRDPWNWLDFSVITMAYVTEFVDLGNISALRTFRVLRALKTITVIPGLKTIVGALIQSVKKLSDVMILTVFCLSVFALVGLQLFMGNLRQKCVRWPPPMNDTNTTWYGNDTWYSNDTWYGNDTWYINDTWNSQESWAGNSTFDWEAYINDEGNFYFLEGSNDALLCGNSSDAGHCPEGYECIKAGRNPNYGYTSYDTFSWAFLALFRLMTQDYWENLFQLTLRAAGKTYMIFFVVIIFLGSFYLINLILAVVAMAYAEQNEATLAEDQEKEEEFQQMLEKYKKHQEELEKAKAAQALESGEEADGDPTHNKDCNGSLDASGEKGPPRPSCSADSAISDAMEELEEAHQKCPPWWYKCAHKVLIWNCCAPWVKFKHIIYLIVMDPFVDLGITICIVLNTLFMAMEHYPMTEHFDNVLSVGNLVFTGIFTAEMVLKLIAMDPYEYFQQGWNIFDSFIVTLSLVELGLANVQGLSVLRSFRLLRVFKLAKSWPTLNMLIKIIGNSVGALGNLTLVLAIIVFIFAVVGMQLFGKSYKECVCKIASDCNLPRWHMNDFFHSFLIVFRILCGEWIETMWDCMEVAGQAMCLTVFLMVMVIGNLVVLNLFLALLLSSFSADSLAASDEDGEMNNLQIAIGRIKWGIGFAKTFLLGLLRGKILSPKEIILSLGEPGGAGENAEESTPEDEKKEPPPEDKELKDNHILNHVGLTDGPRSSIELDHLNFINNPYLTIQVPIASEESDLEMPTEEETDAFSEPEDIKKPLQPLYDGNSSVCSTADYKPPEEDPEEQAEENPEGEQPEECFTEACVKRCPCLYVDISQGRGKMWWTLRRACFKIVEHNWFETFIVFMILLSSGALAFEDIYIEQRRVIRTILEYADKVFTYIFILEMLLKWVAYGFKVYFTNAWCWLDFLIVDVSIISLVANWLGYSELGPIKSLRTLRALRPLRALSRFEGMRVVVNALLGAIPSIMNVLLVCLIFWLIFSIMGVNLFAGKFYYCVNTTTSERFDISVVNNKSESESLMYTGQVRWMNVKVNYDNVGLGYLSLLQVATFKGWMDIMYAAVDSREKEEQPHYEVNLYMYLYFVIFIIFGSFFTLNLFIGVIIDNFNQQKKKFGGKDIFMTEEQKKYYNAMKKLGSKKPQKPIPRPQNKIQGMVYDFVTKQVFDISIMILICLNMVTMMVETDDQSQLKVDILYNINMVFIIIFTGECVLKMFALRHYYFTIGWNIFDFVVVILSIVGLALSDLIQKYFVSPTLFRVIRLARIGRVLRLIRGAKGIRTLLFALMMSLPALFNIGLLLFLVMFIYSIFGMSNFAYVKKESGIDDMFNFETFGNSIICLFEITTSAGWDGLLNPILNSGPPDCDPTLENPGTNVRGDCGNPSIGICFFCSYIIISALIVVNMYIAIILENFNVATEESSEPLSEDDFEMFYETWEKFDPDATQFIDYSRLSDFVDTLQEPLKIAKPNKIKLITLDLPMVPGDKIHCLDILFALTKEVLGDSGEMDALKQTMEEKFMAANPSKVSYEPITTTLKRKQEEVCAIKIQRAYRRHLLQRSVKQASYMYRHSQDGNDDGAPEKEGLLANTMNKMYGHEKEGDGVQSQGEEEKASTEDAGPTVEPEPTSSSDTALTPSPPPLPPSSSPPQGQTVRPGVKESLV
T5 sequence (P04775 whole entry Y1771A): as the sequence (P04775 whole entry) above, with Y1771A counted along it
T3 sequence (P15390 whole entry): as the sequence (P15390 whole entry F1579A) above, with A1579F counted along it
T2 sequence (P15390 whole entry Y1586A): as the sequence (P15390 whole entry F1579A) above, with A1579F, Y1586A counted along it
T4 sequence (P04775 whole entry F1764A): as the sequence (P04775 whole entry) above, with F1764A counted along it

Work on `Cc1ccccc1NC(=N)Nc1ccccc1C` [1,3-di-o-tolyl-guanidine] yielded an inhibition at 100 µM (NaV1.2 [1]) of 69 ± 2.5%.
Compound `C=CCN1CC[C@]2(C)c3cc(O)ccc3C[C@H]1[C@H]2C` [(+)-SKF 10047] has an inhibition at 100 µM (NaV1.4 [2]) of 49.3 ± 0.5%, an inhibition at 100 µM (NaV1.4 [3]) of 51.5 ± 2.5% and an inhibition at 100 µM (NaV1.2 [4]) of 25.9 ± 1.6%. For the same compound, the inhibition at 100 µM (NaV1.2 [5]) was 45.2 ± 1.3%, the IC50 (NaV1.2 [6]) was 140 µM and the inhibition at 100 µM (NaV1.4 [7]) was 23 ± 1.7%.
For `COc1ccc2c(c1)[C@]13CCCC[C@@H]1[C@H](C2)N(C)CC3` [Dextromethorphan], the inhibition at 100 µM (NaV1.2 [8]) was 65.8 ± 2%.
